The source of these data is patent US11370798B2 (Vertex Pharmaceuticals Incorporated, priority 2012, dated 2022).

The test system of this experiment is HCT116 colorectal cancer cells. In words: Cisplatin sensitization assay (96 h cell viability MTS).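 Note: Test-compound concentration that lowers the Cisplatin IC50 by a set fold.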 It is filed as cell-based. The note with it: compound and Cisplatin added simultaneously, Cisplatin sensitization value. Here is the method: Compounds can be screened for their ability to sensitize HCT116 colorectal cancer cells to Cisplatin using a 96 h cell viability (MTS) assay. […] Compounds and Cisplatin are then both added simultaneously to the cell media in 2-fold serial dilutions from a top final concentration of 10 μM as a full matrix of concentrations in a final cell volume of 200 μl, and the cells are then incubated at 37° C. in 5% CO2. After 96 h, 40 μl of MTS reagent (Promega G358a) is added to each well and the cells are incubated for 1 h at 37° C. in 5% CO2.
Compounds with a Cisplatin sensitization value of <0.02 μM are marked with “+++.” Compounds with a Cisplatin sensitization value>0.02 μM but <0.2 μM are marked with “++.” Compounds with a Cisplatin sensitization value>0.2 μM but <5 μM are marked with “+.”

Consider `CN1CCC(c2ccncc2NC(=O)c2c(N)nn3cc(C(C)(C)C#N)cnc23)CC1` [I-C-23, 2-amino-6-(2-cyanopropan-2-yl)-N-(4-(1-methylpiperidin-4-yl)pyridin-3-yl)pyrazolo[1,5-a]pyrimidine-3-carboxamide], for which the “Cisplatin Sensitization Assay” value is given as “+ (Cisplatin sensitization value>0.2 μM but <5 μM)”.

As for `Nc1nn2cc(F)cnc2c1C(=O)Nc1cnccc1-c1ccncc1` [I-C-24, N-([4,4′-bipyridin]-3-yl)-2-amino-6-fluoropyrazolo[1,5-a]pyrimidine-3-carboxamide], the “Cisplatin Sensitization Assay” value was “+++ (Cisplatin sensitization value of <0.02 μM)”.

Take `CN1CCN(C(=O)c2ccc(-c3ccncc3NC(=O)c3c(N)nn4cc(F)cnc34)cc2)CC1` [I-C-25, 2-amino-6-fluoro-N-(4-(4-(4-methylpiperazine-1-carbonyl)phenyl)pyridin-3-yl)pyrazolo[1,5-a]pyrimidine-3-carboxamide]: the “Cisplatin Sensitization Assay” value is “+++ (Cisplatin sensitization value of <0.02 μM)”.

For the molecule `Nc1nn2cc(F)cnc2c1C(=O)Nc1cnccc1-c1ccnnc1` [I-C-26, 2-amino-6-fluoro-N-(4-(pyridazin-4-yl)pyridin-3-yl)pyrazolo[1,5-a]pyrimidine-3-carboxamide], the “Cisplatin Sensitization Assay” value is listed as “++ (Cisplatin sensitization value>0.02 μM but <0.2 μM)”.

On to `COc1ccc(-c2ccncc2NC(=O)c2c(N)nn3cc(F)cnc23)cn1` [I-C-27, 2-amino-6-fluoro-N-(6-methoxy-[3,4′-bipyridin]-3′-yl)pyrazolo[1,5-a]pyrimidine-3-carboxamide], for which the “Cisplatin Sensitization Assay” value was “++ (Cisplatin sensitization value>0.02 μM but <0.2 μM)”.

For the molecule `Cc1cnccc1-c1ccncc1NC(=O)c1c(N)nn2cc(F)cnc12` [I-C-29, 2-amino-6-fluoro-N-(3′-methyl-[4,4′-bipyridin]-3-yl)pyrazolo[1,5-a]pyrimidine-3-carboxamide], the “Cisplatin Sensitization Assay” value is “+++ (Cisplatin sensitization value of <0.02 μM)”.

Consider `Cc1ccncc1-c1ccncc1NC(=O)c1c(N)nn2cc(F)cnc12` [I-C-30, 2-amino-6-fluoro-N-(4-methyl-[3,4′-bipyridin]-3′-yl)pyrazolo[1,5-a]pyrimidine-3-carboxamide], for which the “Cisplatin Sensitization Assay” value was “+++ (Cisplatin sensitization value of <0.02 μM)”.

For the molecule `Cc1nnccc1-c1ccncc1NC(=O)c1c(N)nn2cc(F)cnc12` [I-C-31, 2-amino-6-fluoro-N-(4-(3-methylpyridazin-4-yl)pyridin-3-yl)pyrazolo[1,5-a]pyrimidine-3-carboxamide], the “Cisplatin Sensitization Assay” value is on record as “+++ (Cisplatin sensitization value of <0.02 μM)”.

Regarding `Cc1ccnnc1-c1ccncc1NC(=O)c1c(N)nn2cc(F)cnc12` [I-C-33, 2-amino-6-fluoro-N-(4-(4-methylpyridazin-3-yl)pyridin-3-yl)pyrazolo[1,5-a]pyrimidine-3-carboxamide], the “Cisplatin Sensitization Assay” value is reported as “+ (Cisplatin sensitization value>0.2 μM but <5 μM)”.

Regarding `Cc1nc(F)ccc1-c1ccncc1NC(=O)c1c(N)nn2cc(F)cnc12` [I-C-34, 2-amino-6-fluoro-N-(6-fluoro-2-methyl-[3,4′-bipyridin]-3′-yl)pyrazolo[1,5-a]pyrimidine-3-carboxamide], the “Cisplatin Sensitization Assay” value is recorded as “+++ (Cisplatin sensitization value of <0.02 μM)”.

For the molecule `Nc1nn2cc(F)cnc2c1C(=O)Nc1cnccc1-c1cccnc1F` [I-C-35, 2-amino-6-fluoro-N-(2-fluoro-[3,4′-bipyridin]-3′-yl)pyrazolo[1,5-a]pyrimidine-3-carboxamide], the “Cisplatin Sensitization Assay” value was “+++ (Cisplatin sensitization value of <0.02 μM)”.

Take `Cc1cccnc1-c1ccncc1NC(=O)c1c(N)nn2cc(F)cnc12` [I-C-36, 2-amino-6-fluoro-N-(3-methyl-[2,4′-bipyridin]-3′-yl)pyrazolo[1,5-a]pyrimidine-3-carboxamide]: the “Cisplatin Sensitization Assay” value is listed as “+++ (Cisplatin sensitization value of <0.02 μM)”.

On to `Nc1nn2cc(F)cnc2c1C(=O)Nc1cnccc1-c1cccnc1Cl` [I-C-37, 2-amino-N-(2-chloro-[3,4′-bipyridin]-3′-yl)-6-fluoropyrazolo[1,5-a]pyrimidine-3-carboxamide], for which the “Cisplatin Sensitization Assay” value was “+++ (Cisplatin sensitization value of <0.02 μM)”.

Turning to `CN1CCC(C(=O)N2CC=C(c3c(F)cncc3NC(=O)c3c(N)nn4cc(F)cnc34)CC2)CC1` [I-C-38, 2-amino-6-fluoro-N-(5-fluoro-1′-(1-methylpiperidine-4-carbonyl)-1′,2′,3′,6′-tetrahydro-[4,4′-bipyridin]-3-yl)pyrazolo[1,5-a]pyrimidine-3-carboxamide], the “Cisplatin Sensitization Assay” value is “++ (Cisplatin sensitization value>0.02 μM but <0.2 μM)”.

As to `Cc1nc(C(=O)N2CCN(C)CC2)ccc1-c1ccncc1NC(=O)c1c(N)nn2cc(F)cnc12` [I-C-39, 2-amino-6-fluoro-N-(2-methyl-6-(4-methylpiperazine-1-carbonyl)-[3,4′-bipyridin]-3′-yl)pyrazolo[1,5-a]pyrimidine-3-carboxamide], the “Cisplatin Sensitization Assay” value is “+++ (Cisplatin sensitization value of <0.02 μM)”.

Take `Cc1nc(N2CCN(C)CC2)ccc1-c1ccncc1NC(=O)c1c(N)nn2cc(F)cnc12` [I-C-40, 2-amino-6-fluoro-N-(2-methyl-6-(4-methylpiperazin-1-yl)-[3,4′-bipyridin]-3′-yl)pyrazolo[1,5-a]pyrimidine-3-carboxamide]: the “Cisplatin Sensitization Assay” value is reported as “+++ (Cisplatin sensitization value of <0.02 μM)”.

Take `Cc1nc(O[C@@H]2CCN(C)C2)ccc1-c1ccncc1NC(=O)c1c(N)nn2cc(F)cnc12` [I-C-41, (R)-2-amino-6-fluoro-N-(2-methyl-6-((1-methylpyrrolidin-3-yl)oxy)-[3,4′-bipyridin]-3′-yl)pyrazolo[1,5-a]pyrimidine-3-carboxamide]: the “Cisplatin Sensitization Assay” value is reported as “+++ (Cisplatin sensitization value of <0.02 μM)”.

As to `Nc1nn2cc(F)cnc2c1C(=O)Nc1cnccc1C1CC1` [I-C-42, 2-amino-N-(4-cyclopropylpyridin-3-yl)-6-fluoropyrazolo[1,5-a]pyrimidine-3-carboxamide], the “Cisplatin Sensitization Assay” value is given as “++ (Cisplatin sensitization value>0.02 μM but <0.2 μM)”.

As for `CN1CCN(C(=O)c2ccc(-c3c(F)cncc3NC(=O)c3c(N)nn4cc(F)cnc34)cc2)CC1` [I-C-43, 2-amino-6-fluoro-N-(5-fluoro-4-(4-(4-methylpiperazine-1-carbonyl)phenyl)pyridin-3-yl)pyrazolo[1,5-a]pyrimidine-3-carboxamide], the “Cisplatin Sensitization Assay” value is given as “+++ (Cisplatin sensitization value of <0.02 μM)”.

`Nc1nn2cc(F)cnc2c1C(=O)Nc1cnccc1-c1ccc(C(=O)N2CCNCC2)cc1` [I-C-44, 2-amino-6-fluoro-N-(4-(4-(piperazine-1-carbonyl)phenyl)pyridin-3-yl)pyrazolo[1,5-a]pyrimidine-3-carboxamide]: the “Cisplatin Sensitization Assay” value is given as “+++ (Cisplatin sensitization value of <0.02 μM)”.

In the case of `Cc1cc(C(=O)N2CCN(C)CC2)ccc1-c1ccncc1NC(=O)c1c(N)nn2cc(F)cnc12` [I-C-45, 2-amino-6-fluoro-N-(4-(2-methyl-4-(4-methylpiperazine-1-carbonyl)phenyl)pyridin-3-yl)pyrazolo[1,5-a]pyrimidine-3-carboxamide], the “Cisplatin Sensitization Assay” value is “+++ (Cisplatin sensitization value of <0.02 μM)”.

Regarding `CN1CCN(C(=O)c2cnc(-c3ccncc3NC(=O)c3c(N)nn4cc(F)cnc34)c(Cl)c2)CC1` [I-C-46, 2-amino-N-(3-chloro-5-(4-methylpiperazine-1-carbonyl)-[2,4′-bipyridin]-3′-yl)-6-fluoropyrazolo[1,5-a]pyrimidine-3-carboxamide], the “Cisplatin Sensitization Assay” value is listed as “+ (Cisplatin sensitization value>0.2 μM but <5 μM)”.

Take `Nc1nn2cc(F)cnc2c1C(=O)Nc1cnccc1C1CCN(S(=O)(=O)C2CC2)CC1` [I-C-47, 2-amino-N-(4-(1-(cyclopropylsulfonyl)piperidin-4-yl)pyridin-3-yl)-6-fluoropyrazolo[1,5-a]pyrimidine-3-carboxamide]: the “Cisplatin Sensitization Assay” value is reported as “+++ (Cisplatin sensitization value of <0.02 μM)”.

Turning to `Nc1nn2cc(F)cnc2c1C(=O)Nc1cnccc1-c1ccc(C(=O)N2CCN3CCC2CC3)cc1` [I-C-48, N-(4-(4-(1,4-diazabicyclo[3.2.2]nonane-4-carbonyl)phenyl)pyridin-3-yl)-2-amino-6-fluoropyrazolo[1,5-a]pyrimidine-3-carboxamide], the “Cisplatin Sensitization Assay” value is “+++ (Cisplatin sensitization value of <0.02 μM)”.

Turning to `Nc1nn2cc(F)cnc2c1C(=O)Nc1cnccc1-c1ccc(C(=O)N2CCN(C3COC3)CC2)cc1` [I-C-49, 2-amino-6-fluoro-N-(4-(4-(4-(oxetan-3-yl)piperazine-1-carbonyl)phenyl)pyridin-3-yl)pyrazolo[1,5-a]pyrimidine-3-carboxamide], the “Cisplatin Sensitization Assay” value is recorded as “+++ (Cisplatin sensitization value of <0.02 μM)”.

For `Nc1nn2cc(F)cnc2c1C(=O)Nc1cnccc1-c1ccc(C(=O)N2CCN3CCC2CC3)cc1F` [I-C-50, N-(4-(4-(1,4-diazabicyclo[3.2.2]nonane-4-carbonyl)-2-fluorophenyl)pyridin-3-yl)-2-amino-6-fluoropyrazolo[1,5-a]pyrimidine-3-carboxamide], the “Cisplatin Sensitization Assay” value was “+++ (Cisplatin sensitization value of <0.02 μM)”.

For the molecule `Nc1nn2cc(F)cnc2c1C(=O)Nc1cnccc1-c1ccc(C(=O)N2CCN(C3COC3)CC2)cc1F` [I-C-51, 2-amino-6-fluoro-N-(4-(2-fluoro-4-(4-(oxetan-3-yl)piperazine-1-carbonyl)phenyl)pyridin-3-yl)pyrazolo[1,5-a]pyrimidine-3-carboxamide], the “Cisplatin Sensitization Assay” value was “++ (Cisplatin sensitization value>0.02 μM but <0.2 μM)”.
